According to US8206707B2, “Combination therapy for the treatment of ocular neovascular disorders” (Ophthotech Corporation, priority 2004, dated 2012):
Entries after “also recorded” stand apart in the source; their conditions may differ.

What was measured:
[1] = test system: choroidal neovascularization; assay: Laser-induced choroidal neovascularization (CNV) model, Example 2; assay type: in vivo, C57BL/6 mice; details: treated 7 days from day 7; for decrease in CNV area compared to control eyes: experiment with Gleevec (50 mg/kg gavage twice a day) and pegaptanib 25 mg/kg i.p. twice a day
Method: Experimental CNV is often used as a model for Age-related Macular degeneration (AMD). In this model, vessels of the choroid grow through breaks in Bruch's membrane and into the retina, similar to what is observed in AMD patients. To induce experimental CNV, male C57BL/6 mice (18-20 g; Charles River, Wilmington, Mass.) were anesthetized with intramuscular ketamine hydrochloride (25 mg/kg) and xylazine (10 mg/kg) and the pupils were dilated with 1% tropicamide. Four burns were generated using diode laser photocoagulation (75-μm spot size, 0.1-second duration, 90 mW, Oculight SL laser, IRIDEX, Mountain View, Calif.) and a hand-held cover slide as a contact lens. Burns localized to the 3, 6, 9 and 12 o'clock positions of the posterior pole of the retina. Production of a bubble at the time of laser, which indicates rupture of Bruch's membrane, is an important factor in obtaining choroidal neovascularization, so only mice in which a bubble was produced for all four burns were included in the study. […] In experiments using APB5 (an anti-mouse PDGFRb (CD140b) antibody (anti-PDGF agent) from eBioscience, San Diego, Calif.), 5 mg/kg of antibody was administered using intra-peritoneal injections of twice a day. The area of choroidal NV lesions was measured in flat-mounted choroid stained with PECAM. Flat-mounts were examined by fluorescence microscopy and quantified using Openlab software.

[2] = test system: corneal neovascularization; assay: Corneal NV regression, anti-VEGF aptamer and anti-PDGF aptamer, Example 6; assay type: in vivo, C57BL/6 mice; details: pegaptanib 25 mg/kg i.p. twice a day, ARC-127 50 mg/kg once a day; treated day 10-20, read day 20; FIGS. 11, 12
Method: (§1) Corneal Neovascularization is a widely used animal model that allows clear visualization of abnormal vascular growth in the eye. The vessels that grow into the normally avascular cornea, can become well established, making this an attractive model to study vessel regression. To induce experimental corneal NV, male C57BL/6 mice (18-20 g; Charles River, Wilmington, Mass.) were anesthetized with intramuscular ketamine hydrochloride (25 mg/kg) and xylazine (10 mg/kg). NaOH (2 ul of 0.2 mM) was applied topically. The corneal and limbal epithelia were removed by applying a rotary motion parallel to the limbus using #21 blade (Feather, Osaka, Japan). […] Corneal NV was visualized using fluorescence microscopy and quantified using Openlab software. The percent of cornea covered by vessels was calculated as a percentage of total corneal area.
The corneal NV model of Example 1 was used to investigate the combination of an anti-VEGF aptamer and anti-PDGF aptamer. […] Corneal NV was visualized using CD31 staining (BD Biosciences Pharmingen, San Diego, Calif.) and quantified using Metamorph software. The percent of cornea covered by vessels was calculated as a percentage of total corneal area.

[3] = test system: corneal neovascularization; assay: Corneal NV regression, order of addition of therapeutic agent, Example 8; assay type: in vivo, C57BL/6 mice; details: APB5 from day 14-21, pegaptanib sodium from day 21-28; read day 28; FIG. 14
Method: as §1
(§2) The corneal NV model of Example 1 was used to investigate the effect of order of addition of the combination therapy using an anti-VEGF aptamer and an antibody against the PDGFB receptor. […] Corneal NV was visualized using fluorescence microscopy and quantified using Openlab software. The percent of cornea covered by vessels was calculated as a percentage of total corneal area and the results are depicted in FIG. 14.

[4] = test system: corneal neovascularization; assay: Corneal neovascularization (corneal NV) model, Example 1; assay type: in vivo, C57BL/6 mice; details: mice; pegaptanib 25 mg/kg i.p. twice a day, Gleevec 50 mg/kg gavage twice a day; treated day 7-14, read day 14; FIG. 5
[5] = test system: developing vessels of the retina; assay: Neonatal mouse model, developing vessels of the retina, Example 3; assay type: in vivo, Neonatal C57BL/6 mice; details: for effect on blood vessels of the developing retina (growth, morphology): 100 μg of each agent i.p. daily from P0, eyes taken at P4, versus control non-treated retina, FIG. 10
Source text: The effect of administering pegaptanib sodium (Macugen™), and ARC-127 (Archemix Corp., Cambridge, Mass.), a PEGylated, anti-PDGF aptamer having the sequence […] […] […] GT (SEQ ID NO: 23, which corresponds to SEQ ID NO: 146 from U.S. Pat. No. 6,582,918, incorporated herein by reference in its entirety) having 2′-fluoro-2′-deoxyuridine at positions 6, 20 and 30, 2′-fluoro-2′-deoxycytidine at positions 8, 21, 28, and 29, 2′-O -Methyl-2′-deoxyguanosine at positions 9, 15, 17, and 31, 2′-O-Methyl-2′-deoxyadenosine at position 22, “N” in positions 10 and 23 from a hexaethylene-glycol phosphoramidite, and an inverted orientation T (i.e., 3′-3′-linked) at position 32, or both on the developing vessels of the retina was investigated. Neonatal C57BL/6 mice were injected daily (in the intra-peritoneal cavity) with 100 μg of ARC-127 or 100 μg of Macugen or both, starting on postnatal day 0 (P0). Mice eyes were enucleated at P4. The retinal vasculature was visualized in flatmounted retinas by immunostaining with PECAM and NG-2 or by perfusion with ConA-FITC and analyzed by fluorescence microscopy.

[6] = test system: corneal neovascularization; assay: Corneal NV regression, anti-VEGF aptamer and antibody against PDGFB receptor, Example 7; assay type: in vivo, C57BL/6 mice; details: pegaptanib 25 mg/kg i.p. twice a day, APB5 50 mg/kg by gavage twice a day; treated day 14-28, read day 28; FIG. 13
Method: as §1
as §2, with “combination” for “effect”, “of” for “of order of addition of the combination therapy using”, “area.” for “area and the results are depicted in FIG. 14.”

Molecule: Cc1ccc(NC(=O)c2ccc(CN3CCN(C)CC3)cc2)cc1Nc1nccc(-c2cccnc2)n1 [Gleevec]
- decrease in CNV area compared to control eyes [1]: 4.2%

Molecule: pegaptanib sodium
- decrease in vessel growth (percent of cornea covered by vessels) as compared to day 20 controls [2]: 13.81%
- decrease in CNV area compared to control ([1]; experiment with APB5 (5 mg/kg i.p. twice a day) and pegaptanib 25 mg/kg i.p. twice a day): 24%
- decrease in CNV area compared to control eyes [1]: 27%
- regression of corneal neovascularization, less neovascular growth as compared to control [3]: little effect
- decrease in vessel growth (percent of cornea covered by vessels) as compared to untreated controls and Gleevec treated eyes [4]: 19.6%
- effect on blood vessels of the developing retina (growth, morphology) ([5]; listed as Macugen): did not interfere; also recorded: no effect
- decrease in vessel growth (percent of cornea covered by vessels) as compared to control [6]: 8.3%

Molecule: ARC-127: PEGylated, anti-PDGF aptamer (Archemix Corp.), sequence CAGGCUACGNCGTAGAGCAUCANTGATCCUGT (SEQ ID NO: 23) with 2′-fluoro and 2′-O-methyl modifications (CAGGCUACGNCGTAGAGCAUCANTGATCCUGT; PEG, 2'-fluoro and 2'-O-methyl modifications, chemistry not fully specified)
- decrease in vessel growth (percent of cornea covered by vessels) as compared to day 20 controls [2]: did not show a significant decrease
- mural cell recruitment to the developing vessels of the retina ([5]; 100 μg i.p. daily from P0, eyes taken at P4): completely blocked
- effect on blood vessels of the developing retina (growth, morphology) [5]: less vessel growth; also recorded: affects vessels outgrowth and morphology
